Laboratory results as given in BindingDB's records for doi:10.1016/s0960-894x(02)00516-4 (Atherogenics, 2002).

assay: Inhibition of TNF-alpha inducible Vascular cell adhesion molecule-1 expression.

Compared with CC(C)(Sc1cc(C(C)(C)C)c(O)c(C(C)(C)C)c1)Sc1cc(C(C)(C)C)c(OC(=O)C(=O)O)c(C(C)(C)C)c1 [Oxalic acid mono-{2,6-di-tert-butyl-4-[1-(3,5-di-tert-butyl-4-hydroxy-phenylsulfanyl)-1-methyl-ethylsulfanyl]-phenyl} ester], CC(C)(Sc1cc(C(C)(C)C)c(O)c(C(C)(C)C)c1)Sc1cc(C(C)(C)C)c(OC(=O)CCC(=O)O)c(C(C)(C)C)c1 [Succinic acid mono-{2,6-di-tert-butyl-4-[1-(3,5-di-tert-butyl-4-hydroxy-phenylsulfanyl)-1-methyl-ethylsulfanyl]-phenyl} ester] is lower in IC50: over 50 µM for the first, 6 µM for the second.

First: CC(C)(Sc1cc(C(C)(C)C)c(OC(=O)CCC(=O)O)c(C(C)(C)C)c1)Sc1cc(C(C)(C)C)c(OC(=O)CCC(=O)O)c(C(C)(C)C)c1 [Succinic acid mono-(2,6-di-tert-butyl-4-{1-[3,5-di-tert-butyl-4-(3-carboxy-propionyloxy)-phenylsulfanyl]-1-methyl-ethylsulfanyl}-phenyl) ester]
Second: CC(C)(Sc1cc(C(C)(C)C)c(O)c(C(C)(C)C)c1)Sc1cc(C(C)(C)C)c(OC(=O)CCCC(=O)O)c(C(C)(C)C)c1 [Pentanedioic acid mono-{2,6-di-tert-butyl-4-[1-(3,5-di-tert-butyl-4-hydroxy-phenylsulfanyl)-1-methyl-ethylsulfanyl]-phenyl} ester]
The IC50 of the first is higher: over 50 µM for the first, 9 µM for the second. The second is the more potent here.

First: CC(C)(Sc1cc(C(C)(C)C)c(O)c(C(C)(C)C)c1)Sc1cc(C(C)(C)C)c(O)c(C(C)(C)C)c1 [2,6-di-tert-butyl-4-(2-(3,5-di-tert-butyl-4-hydroxyphenylthio)propan-2-ylthio)phenol]
Second: CC(C)(Sc1cc(C(C)(C)C)c(O)c(C(C)(C)C)c1)Sc1cc(C(C)(C)C)c(OC(=O)CO)c(C(C)(C)C)c1 [Hydroxy-acetic acid 2,6-di-tert-butyl-4-[1-(3,5-di-tert-butyl-4-hydroxy-phenylsulfanyl)-1-methyl-ethylsulfanyl]-phenyl ester]
The IC50 of the first is higher: over 50 µM for the first, 30 µM for the second. The second is the more potent here.

First: CC(C)(Sc1cc(C(C)(C)C)c(O)c(C(C)(C)C)c1)Sc1cc(C(C)(C)C)c(OC(=O)C(F)(F)C(F)(F)C(F)(F)C(=O)O)c(C(C)(C)C)c1 [2,2,3,3,4,4-Hexafluoro-pentanedioic acid mono-{2,6-di-tert-butyl-4-[1-(3,5-di-tert-butyl-4-hydroxy-phenylsulfanyl)-1-methyl-ethylsulfanyl]-phenyl} ester]
Second: CC(C)(Sc1cc(C(C)(C)C)c(O)c(C(C)(C)C)c1)Sc1cc(C(C)(C)C)c(OC(=O)COCC(=O)O)c(C(C)(C)C)c1 [{2,6-Di-tert-butyl-4-[1-(3,5-di-tert-butyl-4-hydroxy-phenylsulfanyl)-1-methyl-ethylsulfanyl]-phenoxycarbonylmethoxy}-acetic acid]
The IC50 of the first is 2.7-fold higher: 100 µM for the first, 37 µM for the second. The second is the more potent here.

CC(C)(Sc1cc(C(C)(C)C)c(O)c(C(C)(C)C)c1)Sc1cc(C(C)(C)C)c(OC(=O)CCCO)c(C(C)(C)C)c1 [4-Hydroxy-butyric acid 2,6-di-tert-butyl-4-[1-(3,5-di-tert-butyl-4-hydroxy-phenylsulfanyl)-1-methyl-ethylsulfanyl]-phenyl ester] and CC(C)(Sc1cc(C(C)(C)C)c(O)c(C(C)(C)C)c1)Sc1cc(C(C)(C)C)c(OC(=O)CCCCO)c(C(C)(C)C)c1 [5-Hydroxy-pentanoicacid2,6-di-tert-butyl-4-[1-(3,5-di-tert-butyl-4-hydroxy-phenylsulfanyl)-1-methyl-ethylsulfanyl]-phenyl ester] are within 1.5-fold of each other in IC50: 40 µM for the first, 55 µM for the second.

Compared with CC(C)(Sc1cc(C(C)(C)C)c(O)c(C(C)(C)C)c1)Sc1cc(C(C)(C)C)c(OC(=O)C[C@@H](NC(=O)Cc2ccccc2)C(=O)O)c(C(C)(C)C)c1 [(R)-2-Phenylacetylamino-succinic acid 4-{2,6-di-tert-butyl-4-[1-(3,5-di-tert-butyl-4-hydroxy-phenylsulfanyl)-1-methyl-ethylsulfanyl]-phenyl} ester], CC(C)(Sc1cc(C(C)(C)C)c(O)c(C(C)(C)C)c1)Sc1cc(C(C)(C)C)c(OC(=O)CC(O)CO)c(C(C)(C)C)c1 (stereo not drawn) [3,4-Dihydroxy-butyric acid 2,6-di-tert-butyl-4-[1-(3,5-di-tert-butyl-4-hydroxy-phenylsulfanyl)-1-methyl-ethylsulfanyl]-phenyl ester] is 2.5-fold lower in IC50: 20 µM for the first, 8 µM for the second. The second is the more potent here.

COC(=O)CCC(=O)Oc1c(C(C)(C)C)cc(SC(C)(C)Sc2cc(C(C)(C)C)c(O)c(C(C)(C)C)c2)cc1C(C)(C)C [Succinic acid 2,6-di-tert-butyl-4-[1-(3,5-di-tert-butyl-4-hydroxy-phenylsulfanyl)-1-methyl-ethylsulfanyl]-phenyl ester methyl ester] and CC(C)(Sc1cc(C(C)(C)C)c(O)c(C(C)(C)C)c1)Sc1cc(C(C)(C)C)c(OC(=O)CCO)c(C(C)(C)C)c1 [3-Hydroxy-propionic acid 2,6-di-tert-butyl-4-[1-(3,5-di-tert-butyl-4-hydroxy-phenylsulfanyl)-1-methyl-ethylsulfanyl]-phenyl ester] are within 1.5-fold of each other in IC50: 40 µM for the first, 30 µM for the second.

Compared with CC(C)(CO)CC(=O)Oc1c(C(C)(C)C)cc(SC(C)(C)Sc2cc(C(C)(C)C)c(O)c(C(C)(C)C)c2)cc1C(C)(C)C [4-Hydroxy-3,3-dimethyl-butyric acid 2,6-di-tert-butyl-4-[1-(3,5-di-tert-butyl-4-hydroxy-phenylsulfanyl)-1-methyl-ethylsulfanyl]-phenyl ester], CC(C)(Sc1cc(C(C)(C)C)c(O)c(C(C)(C)C)c1)Sc1cc(C(C)(C)C)c(OC(=O)[C@@H](O)CCC(=O)O)c(C(C)(C)C)c1 [(S)-2-Hydroxy-pentanedioic acid 1-{2,6-di-tert-butyl-4-[1-(3,5-di-tert-butyl-4-hydroxy-phenylsulfanyl)-1-methyl-ethylsulfanyl]-phenyl} ester] is 4.4-fold lower in IC50: 110 µM for the first, 25 µM for the second. The second is the more potent here.

Going from CC(C)(Sc1cc(C(C)(C)C)c(O)c(C(C)(C)C)c1)Sc1cc(C(C)(C)C)c(OC(=O)CCCCCCC(=O)O)c(C(C)(C)C)c1 [Octanedioic acid mono-{2,6-di-tert-butyl-4-[1-(3,5-di-tert-butyl-4-hydroxy-phenylsulfanyl)-1-methyl-ethylsulfanyl]-phenyl} ester] to CC(=O)O/C(=C\C(=O)Oc1c(C(C)(C)C)cc(SC(C)(C)Sc2cc(C(C)(C)C)c(O)c(C(C)(C)C)c2)cc1C(C)(C)C)C(=O)O [2,6-di(tert-butyl)-4-{1-[3,5-di(tert-butyl)-4-hydroxyphenylsulfanyl]-1-methylethylsulfanyl}phenyl 3-carboxylicacid-3-methylcarbonyloxy-(E)-2-propenoate], the IC50 falls from 45 µM to 17 µM (2.6-fold).
